Key:
A2780 ovarian cells [1] = experiment: A2780 ovarian cell proliferation assay in lipid reduced medium, without palmitate (MTT); format: cell-based; conditions: Homo sapiens, A2780, 96 h; read-out: pIC50 A2780 Ovarian Cell, Without Palmitate (converted)
[2] = biological target: Fatty Acid Synthase Keto-reductase Domain (FASN KR) (Homo sapiens, UniProt P49327); experiment: Fatty Acid Synthase keto-reductase domain (FASN KR) inhibition, NADPH oxidation at 340 nm
Procedure: After 20 minutes incubation at room temperature the plate was measured again (T2).
The decrease in absorbance was calculated as (Absorbance before incubation T1)−(Absorbance following incubation T2).
A plot of Controlmin versus test compound concentration was fitted to a 4-parameter logistic curve using a non-linear least squares regression method.

A2780 ovarian cells [3] = experiment: A2780 ovarian cell proliferation assay in lipid reduced medium, with palmitate (MTT); format: cell-based; conditions: Homo sapiens, A2780, 96 h; read-out: pIC50 A2780 Ovarian Cell, With Palmitate (converted)
Procedure, shortened: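 Seeded cells were switched next day to lipid-reduced serum, exposed to compound and 25 μM palmitate complexed with fatty-acid-free BSA, and incubated 96 h. Proliferation was then determined by MTT absorbance at 544 nm, with a best-fit curve of signal against concentration.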

[4] = system: LNCaP-Vancouver prostate cells; experiment: In vitro LNCaP Vancouver prostate cell proliferation assay in lipid reduced medium; format: cell-based; conditions: read-out: pIC50 LNCaP_Vancouver prostate cell (converted)
[5] = system: PC-3M-Luc-C6 prostate cells; experiment: In vitro PC-3M-Luc-C6 prostate cell proliferation assay in lipid reduced medium; format: cell-based; conditions: 96 h, read-out: pIC50 PC-3M-Luc-C6 prostate cell (converted)
[6] = biological target: T1, hFASN enzyme (full length) (Homo sapiens, UniProt P49327); experiment: Fatty Acid Synthase (FASN) inhibition scintillation proximity assay; format: biochemical; conditions: for inhibition at 10 µM: read-out: Human FASN % inhibition @ 10 μM, 10 μM test compound; for IC50: read-out: Human FASN pIC50 (converted)
T1 construct: 10 μL hFASN enzyme (full length, 300 ng, purified in house); made in house
Procedure, shortened: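 Compounds at 0.01–30 μM were mixed with 300 ng purified full-length enzyme in 100 mM KH2PO4 pH 7.5, 1 mM DTT. Substrates ³H-acetyl-CoA and malonyl-CoA were then converted, and bead addition stopped the reaction. Signal was normalised to low and high plate controls and fitted by 4-parameter nonlinear regression.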

T1 sequence (P49327 whole entry): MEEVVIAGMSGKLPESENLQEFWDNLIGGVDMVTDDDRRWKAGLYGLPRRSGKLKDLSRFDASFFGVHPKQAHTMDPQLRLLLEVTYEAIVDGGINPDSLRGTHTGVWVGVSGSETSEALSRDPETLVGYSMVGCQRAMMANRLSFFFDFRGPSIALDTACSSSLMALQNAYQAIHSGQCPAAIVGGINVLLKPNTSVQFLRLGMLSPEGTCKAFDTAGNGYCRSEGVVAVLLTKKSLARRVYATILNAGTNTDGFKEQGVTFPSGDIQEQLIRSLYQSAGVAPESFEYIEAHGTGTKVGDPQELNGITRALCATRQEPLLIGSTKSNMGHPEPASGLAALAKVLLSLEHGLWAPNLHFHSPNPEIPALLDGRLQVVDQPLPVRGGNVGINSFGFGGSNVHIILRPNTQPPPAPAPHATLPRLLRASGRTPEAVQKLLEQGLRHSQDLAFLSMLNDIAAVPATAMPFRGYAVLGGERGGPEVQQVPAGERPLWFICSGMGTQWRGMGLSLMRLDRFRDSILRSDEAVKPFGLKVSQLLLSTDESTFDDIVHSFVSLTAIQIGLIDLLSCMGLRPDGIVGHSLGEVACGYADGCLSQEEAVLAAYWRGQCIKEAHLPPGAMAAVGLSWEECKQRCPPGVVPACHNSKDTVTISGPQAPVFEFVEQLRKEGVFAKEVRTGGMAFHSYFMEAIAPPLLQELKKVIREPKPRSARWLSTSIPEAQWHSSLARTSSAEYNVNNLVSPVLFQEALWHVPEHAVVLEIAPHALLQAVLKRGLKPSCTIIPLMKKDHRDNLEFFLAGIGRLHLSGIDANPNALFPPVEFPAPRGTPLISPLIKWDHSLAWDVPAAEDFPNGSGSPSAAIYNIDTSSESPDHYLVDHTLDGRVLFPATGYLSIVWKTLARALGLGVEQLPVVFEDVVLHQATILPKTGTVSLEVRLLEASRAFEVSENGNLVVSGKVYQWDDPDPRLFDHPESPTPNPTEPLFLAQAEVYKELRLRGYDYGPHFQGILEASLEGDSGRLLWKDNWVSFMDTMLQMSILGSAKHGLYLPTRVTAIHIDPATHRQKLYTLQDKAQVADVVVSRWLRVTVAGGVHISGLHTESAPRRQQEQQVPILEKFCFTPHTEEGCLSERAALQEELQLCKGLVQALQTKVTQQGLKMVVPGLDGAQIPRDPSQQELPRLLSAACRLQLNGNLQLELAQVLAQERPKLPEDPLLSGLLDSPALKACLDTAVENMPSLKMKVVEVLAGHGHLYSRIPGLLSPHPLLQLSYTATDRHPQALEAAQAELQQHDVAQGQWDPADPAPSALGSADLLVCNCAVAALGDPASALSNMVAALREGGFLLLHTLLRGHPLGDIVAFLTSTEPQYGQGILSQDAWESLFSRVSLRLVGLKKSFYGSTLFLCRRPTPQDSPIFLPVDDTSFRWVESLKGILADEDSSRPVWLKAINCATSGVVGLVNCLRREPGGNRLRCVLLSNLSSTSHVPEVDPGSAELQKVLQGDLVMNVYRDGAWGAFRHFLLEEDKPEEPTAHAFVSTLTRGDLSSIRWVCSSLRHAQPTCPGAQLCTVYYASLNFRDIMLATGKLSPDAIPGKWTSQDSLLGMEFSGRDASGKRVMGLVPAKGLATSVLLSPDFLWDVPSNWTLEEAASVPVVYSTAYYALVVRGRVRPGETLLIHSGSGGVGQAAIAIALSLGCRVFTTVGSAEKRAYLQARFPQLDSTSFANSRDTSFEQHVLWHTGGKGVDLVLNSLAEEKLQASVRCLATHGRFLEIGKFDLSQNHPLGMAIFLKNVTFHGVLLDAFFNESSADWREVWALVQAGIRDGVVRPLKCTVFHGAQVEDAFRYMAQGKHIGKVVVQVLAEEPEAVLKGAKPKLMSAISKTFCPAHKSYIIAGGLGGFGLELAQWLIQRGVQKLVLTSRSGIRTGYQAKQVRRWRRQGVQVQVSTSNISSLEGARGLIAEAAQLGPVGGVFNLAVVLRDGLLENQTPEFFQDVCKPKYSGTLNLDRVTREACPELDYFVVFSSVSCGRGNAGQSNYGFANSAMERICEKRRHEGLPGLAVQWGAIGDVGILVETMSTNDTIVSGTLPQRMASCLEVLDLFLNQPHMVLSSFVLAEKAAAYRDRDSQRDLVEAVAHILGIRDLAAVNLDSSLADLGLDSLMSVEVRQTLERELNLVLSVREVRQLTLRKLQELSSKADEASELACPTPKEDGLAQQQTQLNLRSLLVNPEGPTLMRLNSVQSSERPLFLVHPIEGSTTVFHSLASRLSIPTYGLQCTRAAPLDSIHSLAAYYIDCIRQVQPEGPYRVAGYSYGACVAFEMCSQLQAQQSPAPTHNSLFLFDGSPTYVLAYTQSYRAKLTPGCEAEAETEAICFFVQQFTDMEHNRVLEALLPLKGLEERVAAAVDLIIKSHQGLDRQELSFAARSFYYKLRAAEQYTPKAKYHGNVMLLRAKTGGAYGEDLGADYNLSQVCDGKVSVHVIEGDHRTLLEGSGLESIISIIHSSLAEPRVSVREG
Fatty Acid Synthase Keto-reductase Domain (FASN KR), sequence (P49327 whole entry, the tested form may be a part): as the sequence (P49327 whole entry) above

Row | IC50 (A2780 ovarian cells [1]) | IC50 [2] | IC50 (A2780 ovarian cells [3]) | IC50 [4] | IC50 [5] | inhibition at 10 µM [6] | IC50 [6] | SMILES
1 | 0.0224 µM | 0.0631 µM | > 10 µM | 0.372 µM | 0.0251 µM | 97% | 0.0398 µM | Cn1ncc2cc(-c3ccc(C4=NC5(CC5)C(=O)N4CC4CN(C(=O)C5(C)CC5)C4)c(F)c3)ccc21 [compound 357, 5-(2-fluoro-4-(1-methyl-1H-indaozl-5-yl)phenyl)-6-((1-(1-methylcyclopropanecarbonyl)azetidin-3-yl)methyl)-4,6-diazaspiro[2.4]hept-4-en-7-one]
2 | 2.34 µM | 0.708 µM | > 10 µM | 2.34 µM | 1.74 µM | 94% | 0.347 µM | O=C(C1CC1)N1CC[C@@H](CN2C(=O)C3(CC3)N=C2c2ccc(-c3ccc4c(c3)N=CC4)s2)C1 [compound 426, 6-{[(3R)-1-(Cyclopropylcarbonyl)pyrrolidin-3-yl]methyl}-5-[5-(3H-indol-6-yl)thiophen-2-yl]-4,6-diazaspiro[2.4]hept-4-en-7-one]
3 | ~0.0135 µM | 0.0537 µM | > 10 µM | 0.112 µM | 0.0186 µM | 105% | 0.0288 µM | Cc1cc2cc(-c3ccc(C4=NC5(CC5)C(=O)N4C[C@@H]4CCN(C(=O)C5CC5)C4)c(F)c3)ccc2[nH]1 [compound 319, (R)-6-((1-(cyclopropanecarbonyl)pyrrolidin-3-yl)methyl)-5-(2-fluoro-4-(2-methyl-1H-indol-5-yl)phenyl)-4,6-diazaspiro[2.4]hept-4-en-7-one]
4 | 0.126 µM | 0.245 µM | > 10 µM | 0.692 µM | 0.178 µM | 100% | 0.0871 µM | Cc1cc(-c2ccc3c(cnn3C)c2)ccc1C1=NC2(CC2)C(=O)N1CC1CN(C(=O)C2CC2)C1 [compound 292, 6-((1-(cyclopropanecarbonyl)azetidin-3-yl)methyl)-5-(2-methyl-4-(1-methyl-1H-indazol-5-yl)phenyl)-4,6-diazaspiro[2.4]hept-4-en-7-one]
5 | 2.19 µM | 0.832 µM | > 10 µM | 8.91 µM | 2.09 µM | 96% | 0.363 µM | O=C(C1CC1)N1CC(CN2C(=O)C3(CCN(C(=O)C(F)(F)F)CC3)N=C2c2ccc(-c3ccc4[nH]ccc4c3)cc2)C1 [compound 765, 3-{[1-(Cyclopropylcarbonyl)azetidin-3-yl]methyl}-2-[4-(1H-indol-5-yl)phenyl]-8-(trifluoroacetyl)-1,3,8-triazaspiro[4.5]dec-1-en-4-one]
6 | ~1.86 µM | 1.07 µM | > 10 µM | ~3.89 µM | ~1.66 µM | 94% | 0.275 µM | CS(=O)(=O)N1CCC2(CC1)N=C(c1ccc(-c3ccc4occc4c3)cc1)N(C[C@@H]1CCN(C(=O)C3CC3)C1)C2=O [compound 746, 2-[4-(1-Benzofuran-5-yl)phenyl]-3-{[(3R)-1-(cyclopropylcarbonyl)pyrrolidin-3-yl]methyl}-8-(methylsulfonyl)-1,3,8-triazaspiro[4.5]dec-1-en-4-one]
7 | 0.0955 µM | 0.214 µM | > 10 µM | 1.15 µM | 0.234 µM | 97% | 0.195 µM | O=C(C1CC1)N1CC(CN2C(=O)C3(CC3)N=C2c2ccc(-c3ccc4[nH]ccc4c3)c(F)c2)C1 [compound 440, 6-{[1-(Cyclopropylcarbonyl)azetidin-3-yl]methyl}-5-[3-fluoro-4-(1H-indol-5-yl)phenyl]-4,6-diazaspiro[2.4]hept-4-en-7-one]
8 | ~2.51 µM | 0.537 µM | > 10 µM | 2.75 µM | ~1.62 µM | 102% | 0.158 µM | C=CC(=O)N1CCC2(CC1)N=C(c1ccc(-c3ccc4ccoc4c3)cc1)N(C[C@@H]1CCN(C(=O)C3CC3)C1)C2=O [compound 741, 8-Acryloyl-2-[4-(1-benzofuran-6-yl)phenyl]-3-{[(3R)-1-(cyclopropylcarbonyl)pyrrolidin-3-yl]methyl}-1,3,8-triazaspiro[4.5]dec-1-en-4-one]
9 | 0.0676 µM | 0.263 µM | 1.17 µM | 0.302 µM | 0.126 µM | 103% | 0.0759 µM | Nc1cc2cc(-c3ccc(C4=NC5(CC5)C(=O)N4C[C@@H]4CCN(C(=O)C5CC5)C4)cc3)ccc2cn1 [compound 219, (R)-5-(4-(3-aminoisoquinolin-6-yl)phenyl)-6-((1-(cyclopropanecarbonyl)pyrrolidin-3-yl)methyl)-4,6-diazaspiro[2.4]hept-4-en-7-one]
10 | ~0.049 µM | 0.49 µM | > 10 µM | 0.363 µM | 0.0832 µM | 100% | 0.0794 µM | Cc1cc(-c2ccc(-c3cnn(C(C)C)c3)cc2)ccc1C1=NC2(CC2)C(=O)N1CC1CN(C(=O)C2CC2)C1 [compound 325, 6-((1-(cyclopropanecarbonyl)azetidin-3-yl)methyl)-5-(4′-(1-isopropyl-1H-pyrazol-4-yl)-3-methyl-[1,1′-biphenyl]-4-yl)-4,6-diazaspiro[2.4]hept-4-en-7-one]
11 | ~0.162 µM | 0.479 µM | > 10 µM | 1.48 µM | ~0.324 µM | 99% | 0.102 µM | Cc1nc2cc(-c3ccc(C4=NC5(CC5)C(=O)N4CC4CN(C(=O)C5CC5)C4)c(F)c3)ccc2s1 [compound 356, 6-((1-(cyclopropanecarbonyl)azetidin-3-yl)methyl)-5-(2-fluoro-4-(2-methylbenzo[d]thiazol-5-yl)phenyl)-4,6-diazaspiro[2.4]hept-4-en-7-one]
12 | 1.62 µM | 2 µM | > 10 µM | 5.01 µM | 1.7 µM | 87% | 0.676 µM | O=C(N1CCCC1)N1CC(CN2C(=O)C3(CCOC3)N=C2c2ccc(-c3ccc4cccnc4c3)cc2)C1 (centres unmarked) [compound 717, 3-{[1-(Pyrrolidin-1-ylcarbonyl)azetidin-3-yl]methyl}-2-(4-quinolin-7-ylphenyl)-7-oxa-1,3-diazaspiro[4.4]non-1-en-4-one]
13 | ~0.603 µM | 1.2 µM | > 10 µM | 2.24 µM | 0.501 µM | 98% | 0.417 µM | Cc1cc(-c2nn(C)c3ccccc23)ccc1C1=NC2(CC2)C(=O)N1CC1CN(C(=O)C2(C)CC2)C1 [compound 600, 6-({1-[(1-Methylcyclopropyl)carbonyl]azetidin-3-yl}methyl)-5-[2-methyl-4-(1-methyl-1H-indazol-3-yl)phenyl]-4,6-diazaspiro[2.4]hept-4-en-7-one]
14 | 0.0955 µM | 0.132 µM | > 10 µM | 0.263 µM | 0.1 µM | 98.7% | 0.0417 µM | Cn1cc(-c2ccc(-c3ccc(C4=NC5(CC5)C(=O)N4CC4CN(C(=O)C5CC5)C4)cc3)cc2)cn1 [compound 59, 6-{[1-(Cyclopropylcarbonyl)azetidin-3-yl]methyl}-5-[4′-(1-methyl-1H-pyrazol-4-yl)biphenyl-4-yl]-4,6-diazaspiro[2.4]hept-4-en-7-one]

— patent US10077261B2, “Imidazolin-5-one derivative useful as FASN inhibitors for the treatment of cancer” (Janssen Pharmaceutica NV, priority 2012, dated 2018)
